Experimental data taken from US20140371162A1, “COMBINATION THERAPY COMPRISING SGLT INHIBITORS AND DPP4 INHIBITORS” (MITSUBISHI TANABE PHARMA CORPORATION, priority 2008, published 2014).

How the values were obtained:
[1] = system: plasma active GLP-1 level; experiment: Plasma active GLP-1 level in glucose-loaded diabetic mice; type: in vivo; settings: male db/db mice, mean ± SEM, n=8
Protocol: Male BKS.Cg−+Lepr^db/+Lepr^db/Jcl mice; an Animal Model of Type 2 Diabetes (Purchased from CLEA Japan, Inc.)
Each test compound was suspended in a solution of 0.5% carboxymethyl cellulose containing 0.2% Tween 80 at the doses indicated in Table 3, and administered to the test group orally at a volume of 5 mL/kg. The vehicle control group was orally administered a solution of 0.5% carboxymethyl cellulose containing 0.2% Tween 80 at a volume of 5 mL/kg. Just after the administration of the compound or vehicle, a glucose solution (2 g/kg/5 mL) was given orally.
Blood was collected from the caudal vein of an unanesthetized mice just before and 0.5, 1, and 2 hours after glucose loading. Plasma active GLP-1 level was determined by using RAT ENDOCRINE LINCOplex KIT (LINCO Research).

[2] = system: plasma active GLP-1 level; experiment: Plasma active GLP-1 level in glucose-loaded normal (DPP4-positive) rats, Example 2; type: in vivo, rat; settings: DPP4-positive male Fisher rats, mean ± SEM, n=6
Protocol: DPP4-positive male Fisher rats (purchased from Japan SLC, Inc.)
Each test compound was suspended in a solution of 0.5% carboxymethyl cellulose containing 0.2% Tween 80 at the doses indicated in Table 2, and administered to the test group orally at a volume of 5 mL/kg. The vehicle control group was orally administered a solution of 0.5% carboxymethyl cellulose containing 0.2% Tween 80 at a volume of 5 mL/kg. Just after the administration of the compound or vehicle, a glucose solution (2 g/kg/5 mL) was given orally.
Blood was collected from the caudal vein of an unanesthetized rat just before and 0.2, 0.5, 1, and 2 hours after glucose loading. Plasma active GLP-1 level was determined by using RAT ENDOCRINE LINCOplex KIT (LINCO Research).

[3] = system: plasma active GLP-1 level; experiment: Plasma active GLP-1 level in glucose-loaded normal (DPP4-positive) rats, Example 4; type: in vivo, rat; settings: Table 6, 10 mg/kg oral, DPP4-positive male Fisher rats, mean ± SEM, n=5 or 6
Protocol: Each test compound was suspended in a solution of 0.5% carboxymethyl cellulose containing 0.2% Tween 80 at the doses indicated in Table 4, 5 or 6, and administered to the test group orally at a volume of 5 mL/kg. The vehicle control group was orally administered a solution of 0.5% carboxymethyl cellulose containing 0.2% Tween 80 at a volume of 5 mL/kg. Just after the administration of the compound or vehicle, a glucose solution (2 g/kg/5 mL) was given orally.
Blood was collected from the caudal vein of an unanesthetized rat at appropriate time described in the table. Plasma active GLP-1 level was determined by using RAT ENDOCRINE LINCOplex KIT (LINCO Research).

[4] = system: plasma active GLP-1 level; experiment: Plasma active GLP-1 level in glucose-loaded DPP4-deficient rats; type: in vivo, rat; settings: for GLP-1 concentration at each time point (hr) after oral administration: DPP4-deficient male Fisher rats, mean ± SEM, n=6
Protocol: DPP4-deficient male Fisher rats (purchased from Charles River Japan, Inc.)
The test compound was suspended in a solution of 0.5% carboxymethyl cellulose containing 0.2% Tween 80 at the doses indicated in Table 1, and administered to the test group orally at a volume of 5 mL/kg. The vehicle control group was orally administered a solution of 0.5% carboxymethyl cellulose containing 0.2% Tween 80 at a volume of 5 mL/kg. Just after the administration of the compound or vehicle, a glucose solution (2 g/kg/5 ml) was given orally.
Blood was collected from the caudal vein of an unanesthetized rat just before and 0.5, 1, and 3 hours after glucose loading. Plasma active GLP-1 level was determined by using RAT ENDOCRINE LINCOplex KIT (LINCO Research).

[5] = 0 hr (just before), 3 mg/kg oral
[6] = 0 hr (just before), 10 mg/kg oral
[7] = 0 hr (just before), 30 mg/kg oral

N#C[C@@H]1CCCN1C(=O)CN[C@H]1CC[C@H](C(=O)N2CCOCC2)CC1 (relative stereo) [Compound B, (2S)-2-Cyano-1-[trans-4-(morpholinocarbonyl)cyclohexylamino]acetylpyrrolidine]
GLP-1 concentration at each time point (hr) after oral administration [1, 5]: 18.4 ± 5.1 pM | GLP-1 concentration at each time point (hr) after oral administration ([1]; 0.5 hr, 3 mg/kg oral): 30.0 ± 5.5 pM | GLP-1 concentration at each time point (hr) after oral administration ([1]; 1 hr, 3 mg/kg oral): 46.5 ± 10.1 pM | GLP-1 concentration at each time point (hr) after oral administration ([1]; 2 hr, 3 mg/kg oral): 25.0 ± 4.1 pM | GLP-1 concentration at each time point (hr) after oral administration [2, 5]: 7.2 ± 0.6 pM | GLP-1 concentration at each time point (hr) after oral administration ([2]; 0.2 hr, 3 mg/kg oral): 9.8 ± 0.7 pM | GLP-1 concentration at each time point (hr) after oral administration ([2]; 0.5 hr, 3 mg/kg oral): 9.4 ± 0.4 pM | GLP-1 concentration at each time point (hr) after oral administration ([2]; 1 hr, 3 mg/kg oral): 8.3 ± 0.3 pM | GLP-1 concentration at each time point (hr) after oral administration ([2]; 2 hr, 3 mg/kg oral): 7.9 ± 0.5 pM

CN(C)C(=O)[C@H]1CC[C@H](NCC(=O)N2CCC[C@H]2C#N)CC1.O=S(=O)(O)c1ccccc1 (relative stereo) [Compound I, (2S)-2-cyano-1-[trans-4-(dimethylaminocarbonyl)cyclohexylamino]acetylpyrrolidine besylate]
GLP-1 concentration at 2 hr after oral administration [3]: 4.0 ± 0.6 pM

OC[C@H]1O[C@@H](c2ccc(Cl)c(Cc3ccc(-c4cccc(F)n4)s3)c2)[C@H](O)[C@@H](O)[C@@H]1O [Compound A, 1-(β-D-glucopyranosyl)-4-chloro-3-[5-(6-fluoro-2-pyridyl)-2-thienylmethyl]benzene]
GLP-1 concentration at each time point (hr) after oral administration [4, 6]: 6.2 ± 1.3 pM | GLP-1 concentration at each time point (hr) after oral administration [4, 7]: 5.3 ± 0.7 pM | GLP-1 concentration at each time point (hr) after oral administration ([4]; 0.5 hr, 10 mg/kg oral): 24.5 ± 4.7 pM | GLP-1 concentration at each time point (hr) after oral administration ([4]; 0.5 hr, 30 mg/kg oral): 24.9 ± 3.8 pM | GLP-1 concentration at each time point (hr) after oral administration ([4]; 1 hr, 10 mg/kg oral): 31.3 ± 7.0 pM | GLP-1 concentration at each time point (hr) after oral administration ([4]; 1 hr, 30 mg/kg oral): 34.1 ± 5.7 pM | GLP-1 concentration at each time point (hr) after oral administration ([4]; 3 hr, 10 mg/kg oral): 21.9 ± 2.4 pM | GLP-1 concentration at each time point (hr) after oral administration ([4]; 3 hr, 30 mg/kg oral): 27.1 ± 2.1 pM | effect on plasma active GLP-1 level (in words) ([4]; DPP4-deficient rats, summary of Table 1): markedly increased | GLP-1 concentration at each time point (hr) after oral administration [1, 6]: 20.3 ± 9.6 pM | GLP-1 concentration at each time point (hr) after oral administration ([1]; 0.5 hr, 10 mg/kg oral): 42.6 ± 13.4 pM | GLP-1 concentration at each time point (hr) after oral administration ([1]; 1 hr, 10 mg/kg oral): 49.4 ± 12.0 pM | GLP-1 concentration at each time point (hr) after oral administration ([1]; 2 hr, 10 mg/kg oral): 30.9 ± 8.2 pM | GLP-1 concentration at each time point (hr) after oral administration [2, 6]: 7.7 ± 0.4 pM | GLP-1 concentration at each time point (hr) after oral administration [2, 7]: 5.9 ± 0.3 pM | GLP-1 concentration at each time point (hr) after oral administration ([2]; 0.2 hr, 10 mg/kg oral): 7.9 ± 0.2 pM | GLP-1 concentration at each time point (hr) after oral administration ([2]; 0.2 hr, 30 mg/kg oral): 7.1 ± 0.3 pM | GLP-1 concentration at each time point (hr) after oral administration ([2]; 0.5 hr, 10 mg/kg oral): 10.2 ± 1.0 pM | GLP-1 concentration at each time point (hr) after oral administration ([2]; 0.5 hr, 30 mg/kg oral): 6.7 ± 0.4 pM | GLP-1 concentration at each time point (hr) after oral administration ([2]; 1 hr, 10 mg/kg oral): 9.5 ± 0.6 pM | GLP-1 concentration at each time point (hr) after oral administration ([2]; 1 hr, 30 mg/kg oral): 7.5 ± 0.9 pM | GLP-1 concentration at each time point (hr) after oral administration ([2]; 2 hr, 10 mg/kg oral): 9.6 ± 0.8 pM | GLP-1 concentration at each time point (hr) after oral administration ([2]; 2 hr, 30 mg/kg oral): 9.0 ± 0.9 pM
